This note sets out measurements from US9994577B2, “Azepanyl-derivatives and pharmaceutical compositions comprising the same with antiparasitic activity” (Merck Patent GmbH, priority 2014, dated 2018).

Structures are written as SMILES.

The first assay deals with P. falciparum NF54. The assay can be described thus: P. falciparum growth assay ([3H]hypoxanthine incorporation). Type of assay: cell-based. To be noted: Plasmodium falciparum, [3H]-hypoxanthine incorporation at 72 h, read-out: EC50 (nM), concentration that inhibits by 50% the incorporation of [3H]-hypoxanthine. The protocol:
P. falciparum strain NF54 was obtained from the Research and Reference Reagent Resource Center (MR4) (Manassas, Va.). The two strains were maintained in vitro by a modification of the method of Trager and Jensen. Cultures were maintained in A positive (A+) human erythrocytes suspended at 5% hematocrit in complete medium. 5 g albumax II (Gibco-Invitrogen, Cat No#11021037), 2.5 mg gentamicin (Sigma Aldrich), 25 mM HEPES (Invitrogen), 5 mg hypoxanthine (Sigma), and 1 L of RPMI 1640 (Invitrogen, Cat No#11875085). Cultures were grown in 100 mm petri-dishes (BD Falcon) at a volume of 15 mL and were kept in a standard gas environment of 4% CO2 and 3% O2 at temperature 37° C. in a tri-gas incubator (Cat#3131, Thermo Scientific Forma Series II Water Jacketed). Parasite growth and morphology were observed daily using thin smears at 100× (oil immersion) magnification following staining with Geimsa stain. […]
Parasite growth was detected in assay by the traditional [3H]hypoxanthine incorporation assay as previously described by Desjardins and colleagues (Antimicrob. Agents Chemother., 16(6), 710, 1979). To perform the [3H]hypoxanthine incorporation assay, the new antimalarial agents were serially diluted 1:1 into hypoxanthine-free complete medium to a final volume of 100 μL (final antimalarial agent concentration range, 10,000 nM to 4.8 nM may change in special case) in 96 well sterile cell culture plates. […] All cultures used in the study are albumax II adopted. The microtiter plates were incubated in chamber in a standard gas environment at 37° C. for 72 h. After 48 h of incubation and prior to addition of 50 μL (0.5 μCi/well) 3H-Hypoxanthine (specific activity, 20 Ci/mmol, Conc. 1.0 mCi/ml; American Radiolabeled Chemicals, Inc., St. Louis, Mo.), culture growth was assessed by making the smears that ensures the culture has grown and assay plate is further incubated for 24 h.
Following the incubation period, the plates were harvested with a FilterMate cell harvester (Perkin Elmer) onto unifilter-96 GF/B plates, washed with distilled water to remove excess radiochemical and plates were kept for drying 37° C. overnight or 60° C. for 1 h. 50 μL of Microscint scintillation cocktail (Microscint-High Efficiency LSC-Cocktail; Perkin Elmer) added in the unifilter-96 GF/B plates and kept for 15-20 min. The plates were counted in a Top Count NXT microplate scintillation and luminescence counter (Perkin Elmer). The mean values for [3H]hypoxanthine incorporation in parasitized control and non-parasitized control erythrocytes were calculated.
For the compound `COc1cc2c(cc1C(F)(F)F)c1nc(C(F)(F)F)ccc1n2[C@H]1CCCNC[C@@H]1O` [Compound 18, (3S,4S)-4-(7-methoxy-2,8-bis(trifluoromethyl)-5H-pyrido[3,2-b]indol-5-yl)azepan-3-ol], the EC50 came out at 5.4 nM. Regarding `O[C@H]1CNCCC[C@@H]1n1c2ccc(C(F)(F)F)nc2c2cc(C(F)(F)F)cnc21` [Compound 24, (3S,4S)-4-(2,8-bis(trifluoromethyl)-5H-pyrrolo[2,3-b:4,5-b′]dipyridin-5-yl)azepan-3-ol], the EC50 stood at 2.3 nM. Same read-out and setting: the same measure for `O[C@H]1CNCCC[C@@H]1n1c2ccc(C(F)(F)F)cc2c2cc(C(F)(F)F)cnc21` (racemic) [Compound 14 (i), (3R,4R)-4-[3,6-bis(trifluoromethyl)pyrido[2,3-b]indol-9-yl]azepan-3-ol]: 16.6 nM; for `COc1cc2c(cc1C(F)(F)F)c1nc(C(F)(F)F)ccc1n2[C@@H]1CCCNC[C@H]1O` [Compound 17, (3R,4R)-4-(7-methoxy-2,8-bis(trifluoromethyl)-5H-pyrido[3,2-b]indol-5-yl)azepan-3-ol]: 12.8 nM; for `O[C@@H]1CNCCC[C@H]1n1c2ccc(Cl)cc2c2nc(C(F)(F)F)ncc21` [Compound 21, (3R,4R)-4-(8-chloro-2-(trifluoromethyl)-5H-pyrimido[5,4-b]indol-5-yl)azepan-3-ol]: 41.7 nM.

Consider `CS(=O)(=O)c1c(C(F)(F)F)ccc2c1c1cc(C(F)(F)F)ccc1n2C1CCCNC[C@@H]1O` (mixture of isomers) [6 (mixture of isomers), (3R,4R)-4-[4-methylsulfonyl-3,6-bis(trifluoromethyl)carbazol-9-yl]azepan-3-ol], for which the EC50 was found to be 45.9 nM. The same measure, in the same setting: the same measure for `O=C1CC[C@@H](n2c3ccc(Cl)cc3c3cc(Cl)ccc32)[C@H](O)CN1` [Compound 27, (5R,6R)-5-(3,6-dichloro-9H-carbazol-9-yl)-6-hydroxyazepan-2-one]: 28.2 nM. Consider `COc1cc(Cl)cc2c3nc(C(F)(F)F)ccc3n([C@H]3CCCNC[C@@H]3O)c12` [Compound 20, (3S,4S)-4-(8-chloro-6-methoxy-2-(trifluoromethyl)-5H-pyrido[3,2-b]indol-5-yl)azepan-3-ol], for which the EC50 came to 13.1 nM.

With `COc1cc(Cl)cc2c3cc(Cl)ccc3n([C@H]3CCCNC[C@@H]3O)c12` (racemic) [8 (racemic), (3S,4S)-4-(3,6-dichloro-1-methoxy-9H-carbazol-9-yl)azepan-3-ol], the EC50 amounted to 32.9 nM. Take `COc1cc(Cl)cc2c3nc(C(F)(F)F)ccc3n([C@@H]3CCCNC[C@H]3O)c12` [Compound 19, (3R,4R)-4-(8-chloro-6-methoxy-2-(trifluoromethyl)-5H-pyrido[3,2-b]indol-5-yl)azepan-3-ol]: the EC50 came out at 24 nM. Same read-out and setting: the same measure for `O[C@H]1CNCCCC1N1c2ccc(Cl)cc2Oc2cc(Cl)ccc21` (mixture of isomers) [10 (mixture of isomers), (3R,4R)-4-(3,7-dichloro-10H-phenoxazin-10-yl)azepan-3-ol]: 21 nM; for `O[C@@H]1CNCCC[C@H]1n1c2ccc(C(F)(F)F)cc2c2cc(C(F)(F)F)ccc21` [Compound 3, (3R,4R)-4-[3,6-bis(trifluoromethyl)-9H-carbazol-9-yl]azepan-3-ol]: 2.55 nM. On the same count and under the same terms, the same measure for `O[C@@H]1CNCCC[C@H]1n1c2ccc(C(F)(F)F)nc2c2cc(C(F)(F)F)cnc21` [Compound 23, (3R,4R)-4-(2,8-bis(trifluoromethyl)-5H-pyrrolo[2,3-b:4,5-b′]dipyridin-5-yl)azepan-3-ol]: 11.2 nM; for `O[C@H]1CNCCC[C@@H]1n1c2ccc(Cl)cc2c2nc(C(F)(F)F)ncc21` [Compound 22, (3S,4S)-4-(8-chloro-2-(trifluoromethyl)-5H-pyrimido[5,4-b]indol-5-yl)azepan-3-ol]: 46.1 nM. For `COc1cc2c(cc1Cl)c1cc(Cl)ccc1n2[C@H]1CCCNC[C@@H]1O` (racemic) [Compound 9, (3R,4R)-4-(3,6-dichloro-2-methoxy-9H-carbazol-9-yl)azepan-3-ol], the EC50 worked out at 18 nM. `O[C@@H]1CNCCC[C@H]1n1c2ccc(Cl)cc2c2cc(Cl)ccc21` (stereo in doubt) [Compound 2, (3R,4R)-4-(3,6-dichloro-9H-carbazol-9-yl)azepan-3-ol]: the EC50 was determined as 36.4 nM.

A further assay relates to P falciparum PF3D/0087/N9. Description: In vivo efficacy in a murine model of P. falciparum-malaria (4-day test). Also noted: species or system Plasmodium falciparum. Conditions: NODscidIL2Rynull mice engrafted with human erythrocytes. From the text:
In vivo efficacy against P falciparum PF3D/0087/N9 for the compounds no. 2 and 3 as described in Examples 16 and 17.
The in vivo activity in a murine model of P. falciparum-malaria was adapted from the protocol as provided by Angulo-Barturen I, Jimènez-Diaz M B, Mulet T, Rullas J, Herreros E, et al. (2008) PLoS ONE 3(5): e2252. doi:10.1371/journal.pone.0002252.
This study measures the therapeutic efficacy of compounds no. 2 and 3 against Plasmodium falciparum growing in peripheral blood of NODscidIL2Rynull mice engrafted with human erythrocytes. The antimalarial efficacy of compounds no. 2 and 3 were assessed using a “4-day test”.
The parameters of efficacy estimated in the study are a) the dose of compounds no. 2 and 3 in mg·kg^−1 that reduces parasitemia at day 7 after infection by 90% with respect to vehicle-treated mice (parameter denoted as ED90)
`O[C@@H]1CNCCC[C@H]1n1c2ccc(C(F)(F)F)cc2c2cc(C(F)(F)F)ccc21` [Compound 3, (3R,4R)-4-[3,6-bis(trifluoromethyl)-9H-carbazol-9-yl]azepan-3-ol]: the “ED90, dose that reduces parasitemia at day 7 after infection by 90% with respect to vehicle-treated mice” value was less than 3 mg/kg. The same measure, in the same setting: the same measure for `O[C@@H]1CNCCC[C@H]1n1c2ccc(Cl)cc2c2cc(Cl)ccc21` (stereo in doubt) [Compound 2, (3R,4R)-4-(3,6-dichloro-9H-carbazol-9-yl)azepan-3-ol]: less than 10 mg/kg.
